Reference: US7422886B2, “Method for determining modulation of P110Δ activity” (Ludwig Institute for Cancer Research, priority 1996, dated 2008)

How the values were obtained:
p110α/p85α = p110α/p85α (Bos taurus, UniProt P32871); test: Lipid kinase assay of drug effects on p110α/p85α; type: biochemical
Method: (§1) Lipid kinase activity was performed essentially as described by Whitman et al. (1985). Lipid kinase assay buffer was 20 mM Tris HCl pH 7.4, 100 mM NaCl and 0.5 mM EGTA. Lipids were purchased from Sigma. The final concentration of ATP and Mg^2+ in the assay were routinely 0.5 and 3.5 mM, respectively, while lipids were used at 0.2-0.4 mM concentration. Unless otherwise indicated, kinase reaction was for 10 min at 37° C. The solvent for TLC separation of reaction products was propan-1-ol/2 M acetic acid/5 M H3PO4 (65:35:1). Assays of drug effects on the kinase were performed using PtdIns as substrate in the presence of 40 μM ATP (final) for 10 min at 25° C.; all tubes contained 1% DMSO. Activity was quantified by phosphorimager (Molecular Dynamics) analysis of TLC-separated lipid products.

p110δ/p85α = p110δ/p85α (Homo sapiens, UniProt O00329, S675R); test: Lipid kinase assay of drug effects on p110δ/p85α; type: biochemical; settings: PtdIns substrate, 40 μM ATP, 10 min at 25° C., 1% DMSO; read-out: IC50, inhibition of lipid kinase activity
Method: as §1

Sequence of p110δ/p85α (O00329 whole entry S675R): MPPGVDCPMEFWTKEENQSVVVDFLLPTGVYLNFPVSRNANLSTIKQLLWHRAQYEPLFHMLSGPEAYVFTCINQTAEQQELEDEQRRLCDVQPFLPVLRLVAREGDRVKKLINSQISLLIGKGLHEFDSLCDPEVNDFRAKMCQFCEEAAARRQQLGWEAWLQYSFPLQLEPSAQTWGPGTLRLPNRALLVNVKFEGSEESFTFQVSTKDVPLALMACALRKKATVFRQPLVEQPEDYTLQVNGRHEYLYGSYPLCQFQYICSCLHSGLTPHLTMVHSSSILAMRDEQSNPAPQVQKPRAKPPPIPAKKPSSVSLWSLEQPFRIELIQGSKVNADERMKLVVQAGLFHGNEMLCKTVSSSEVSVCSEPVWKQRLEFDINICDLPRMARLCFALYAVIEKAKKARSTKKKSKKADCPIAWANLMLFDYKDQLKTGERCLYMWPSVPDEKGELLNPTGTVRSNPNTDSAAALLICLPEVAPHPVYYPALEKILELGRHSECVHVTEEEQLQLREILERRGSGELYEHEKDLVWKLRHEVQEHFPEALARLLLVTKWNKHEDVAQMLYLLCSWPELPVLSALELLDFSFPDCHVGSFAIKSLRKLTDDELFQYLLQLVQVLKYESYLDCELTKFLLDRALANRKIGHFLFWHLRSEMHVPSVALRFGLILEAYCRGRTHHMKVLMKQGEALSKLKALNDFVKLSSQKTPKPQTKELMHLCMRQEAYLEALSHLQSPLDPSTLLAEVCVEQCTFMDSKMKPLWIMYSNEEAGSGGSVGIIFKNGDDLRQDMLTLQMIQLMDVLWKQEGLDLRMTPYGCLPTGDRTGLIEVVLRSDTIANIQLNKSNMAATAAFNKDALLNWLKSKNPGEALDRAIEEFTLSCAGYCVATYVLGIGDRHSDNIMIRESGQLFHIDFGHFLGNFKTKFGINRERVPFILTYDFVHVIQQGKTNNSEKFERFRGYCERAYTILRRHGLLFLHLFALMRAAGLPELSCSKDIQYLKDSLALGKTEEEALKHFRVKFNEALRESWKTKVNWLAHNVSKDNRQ
Sequence of p110δ/p85α (P27986 whole entry partner): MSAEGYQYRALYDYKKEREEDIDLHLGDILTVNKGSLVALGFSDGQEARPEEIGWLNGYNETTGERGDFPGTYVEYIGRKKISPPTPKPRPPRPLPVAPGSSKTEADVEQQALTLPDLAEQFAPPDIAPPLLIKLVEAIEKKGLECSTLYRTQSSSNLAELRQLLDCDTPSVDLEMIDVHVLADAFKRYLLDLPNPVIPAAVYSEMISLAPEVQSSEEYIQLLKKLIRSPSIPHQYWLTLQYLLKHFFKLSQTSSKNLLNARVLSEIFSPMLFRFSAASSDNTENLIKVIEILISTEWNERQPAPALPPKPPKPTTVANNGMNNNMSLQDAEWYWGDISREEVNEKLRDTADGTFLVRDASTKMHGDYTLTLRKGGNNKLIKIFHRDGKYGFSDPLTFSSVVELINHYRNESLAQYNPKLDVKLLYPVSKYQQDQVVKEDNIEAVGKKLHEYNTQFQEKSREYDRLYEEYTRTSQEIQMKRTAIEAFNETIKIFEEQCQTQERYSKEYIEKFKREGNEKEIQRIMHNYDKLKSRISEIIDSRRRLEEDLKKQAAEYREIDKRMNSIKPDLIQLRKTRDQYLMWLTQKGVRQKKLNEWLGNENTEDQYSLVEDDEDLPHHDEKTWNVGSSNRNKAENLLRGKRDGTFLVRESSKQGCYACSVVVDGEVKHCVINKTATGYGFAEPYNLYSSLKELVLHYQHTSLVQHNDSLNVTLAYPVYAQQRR
Sequence of p110α/p85α (P32871 whole entry): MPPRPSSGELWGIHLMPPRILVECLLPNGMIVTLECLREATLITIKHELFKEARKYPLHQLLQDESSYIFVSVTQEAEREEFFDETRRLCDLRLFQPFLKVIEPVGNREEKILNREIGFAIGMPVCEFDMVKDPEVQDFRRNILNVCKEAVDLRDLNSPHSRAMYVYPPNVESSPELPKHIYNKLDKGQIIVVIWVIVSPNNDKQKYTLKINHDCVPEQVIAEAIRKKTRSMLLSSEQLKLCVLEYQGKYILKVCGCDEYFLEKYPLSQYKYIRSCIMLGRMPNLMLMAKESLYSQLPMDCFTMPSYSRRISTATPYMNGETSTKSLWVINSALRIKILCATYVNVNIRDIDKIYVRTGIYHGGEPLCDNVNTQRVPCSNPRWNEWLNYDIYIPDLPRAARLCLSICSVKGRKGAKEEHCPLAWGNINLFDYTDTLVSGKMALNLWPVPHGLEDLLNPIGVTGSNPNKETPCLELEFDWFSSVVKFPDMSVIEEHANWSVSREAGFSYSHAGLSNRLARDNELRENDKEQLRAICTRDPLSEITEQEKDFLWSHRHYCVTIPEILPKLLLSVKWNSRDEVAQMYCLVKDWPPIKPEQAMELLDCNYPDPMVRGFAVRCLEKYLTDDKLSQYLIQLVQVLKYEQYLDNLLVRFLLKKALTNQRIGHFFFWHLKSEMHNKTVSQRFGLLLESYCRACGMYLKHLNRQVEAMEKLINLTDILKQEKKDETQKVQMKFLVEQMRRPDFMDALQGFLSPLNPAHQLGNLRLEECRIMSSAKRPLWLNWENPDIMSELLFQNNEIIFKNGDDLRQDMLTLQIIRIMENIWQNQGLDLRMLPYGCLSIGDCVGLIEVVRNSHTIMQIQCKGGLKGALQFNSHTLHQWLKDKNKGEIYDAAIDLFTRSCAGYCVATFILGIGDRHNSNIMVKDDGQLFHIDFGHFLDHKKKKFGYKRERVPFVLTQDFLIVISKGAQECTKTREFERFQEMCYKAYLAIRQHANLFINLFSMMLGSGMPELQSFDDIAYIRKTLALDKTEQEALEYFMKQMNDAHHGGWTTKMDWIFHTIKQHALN

Row | Structure (SMILES) | IC50 (p110α/p85α) | IC50 (p110δ/p85α)
1 | COC[C@H]1OC(=O)c2coc3c2[C@@]1(C)C1=C(C3=O)[C@@H]2CCC(=O)[C@@]2(C)C[C@H]1OC(C)=O [wortmannin] | 5 nM | –
2 | O=c1cc(N2CCOCC2)oc2c(-c3ccccc3)cccc12 [LY294002] | – | 500 nM
